According to US20210024542A1 (Torcept Therapeutics, Inc., priority 2018, published 2021):
“And” between values parts separate entries of the source, which are not always exact repeats. Equal values may be shown once.

How the values were obtained:
[1] = mouse, in vivo, ip, 10 mg/kg
From the text: (§1) Tumor growth was monitored daily. […] Significance was set at p≤0.05.

[2] = Whole blood concentrations in mice after IP dosing (LC-MS/MS); format: in vivo
Experimental: These determinations were made using protein precipitation, liquid chromatography (LC), and mass spectrometry (MS/MS). Ten μl aliquots of whole blood and matrix calibration standards were distributed in a 96-well plate; 10 μl aliquots of blank matrix for matrix blanks and control blanks were included as controls. Ten μl of water was added to each sample followed by vortexing. One hundred sixty […] of internal standard was added to each sample except the matrix blanks; 160 μl 70:30 water:acetonitrile (ACN) was added to matrix blanks. This was followed by a […]. One hundred fifty μl of the resultant supernatant was then transferred to a new 96-well plate and the samples blown to dryness at 35° C. The resultant product was then reconstituted with 90 μl ACN.

[3] = Day 30, 10 mg/kg IP QD
From the text: as §1

U2OS = test: OncoPanel cell proliferation assay, U2OS; format: cell-based, human; settings: for EC50: read-out: Cell Count EC50; for IC50: read-out: Cell Count IC50; for Cell Count Activity Area: scale 0-10
Experimental: Cells were seeded into 384-well plates and incubated in a humidified atmosphere of 5% CO2 at 37° C. Compounds were added the day following cell seeding. At the same time, a time zero untreated cell plate was generated. After a 3-day incubation period, cells were fixed and stained to allow fluorescence imaging of nuclei. Compounds (1 mM stock solutions) were serially diluted in half-log steps from the highest test concentration ([…]), and assayed over 10 concentrations with a maximum assay concentration of 0.1% DMSO. Automated fluorescence microscopy was carried out using a Molecular Devices ImageXpress Micro XL high-content imager, and images were collected with a 4× objective. 16-bit TIFF images were acquired and analyzed with MetaXpress 5.1.0.41 software.
Cell proliferation was measured by the fluorescence intensity of an incorporated nuclear dye. The output is referred to as the relative cell count, where the measured nuclear intensity is transformed to percent of control (POC) using the following formula: […]
Cellular response parameters were calculated using nonlinear regression to a sigmoidal single-site dose response model:
Where y is a response measured at concentration x, A and B are the lower and upper limits of the response, C is the concentration at the response midpoint (EC50), and D is the Hill Slope (Ref. 1).
GI50 is the concentration needed to reduce the observed growth by half (midway between the curve maximum and the time zero value). […] In rare instances, values <0 or >10 may be observed. […] Curve-fitting, calculations, and report generation was performed using a custom data reduction engine and MathIQ based software (AIM).

[4] = 2 mg/kg IP QD x 3 days, Day 1, 1.00 hrs
[5] = 2 mg/kg IP QD x 3 days, Day 1, 2.00 hrs
[6] = 2 mg/kg IP QD x 3 days, Day 1, 6.00 hrs
[7] = 2 mg/kg IP QD x 3 days, Day 1, 24.0 hrs
[8] = 2 mg/kg IP QD x 3 days, Day 2, 1.00 hrs
[9] = 2 mg/kg IP QD x 3 days, Day 2, 2.00 hrs
[10] = 2 mg/kg IP QD x 3 days, Day 2, 6.00 hrs
[11] = 2 mg/kg IP QD x 3 days, Day 2, 24.0 hrs
[12] = 2 mg/kg IP QD x 3 days, Day 3, 1.00 hrs
[13] = 2 mg/kg IP QD x 3 days, Day 3, 2.00 hrs
[14] = 2 mg/kg IP QD x 3 days, Day 3, 6.00 hrs
[15] = 2 mg/kg IP QD x 3 days, Day 3, 24.0 hrs
[16] = 10 mg/kg IP QD x 3 days, Day 1, 1.00 hrs
[17] = 10 mg/kg IP QD x 3 days, Day 1, 2.00 hrs
[18] = 10 mg/kg IP QD x 3 days, Day 1, 6.00 hrs
[19] = 10 mg/kg IP QD x 3 days, Day 1, 24.0 hrs
[20] = 10 mg/kg IP QD x 3 days, Day 2, 2.00 hrs
[21] = 10 mg/kg IP QD x 3 days, Day 2, 24.0 hrs
[22] = Homo sapiens, 72 h, 3-day incubation

Which “Body Wt. % Δ from Baseline, Mean” value [1] does the source give for CO[C@H]1C[C@@H]2CC[C@@H](C)[C@@](O)(O2)C(=O)C(=O)N2CCCC[C@H]2C(=O)O[C@H]([C@H](C)C[C@@H]2C[C@@H]3C[C@H]2C[C@H]3O)CC(=O)[C@H](C)/C=C(\C)[C@@H](O)[C@@H](OC)C(=O)[C@H](C)C[C@H](C)/C=C/C=C/C=C/1C [Formula I, 37R-hydroxynorbornylrapamycin] here?
Its value is 14.24%.

And the “Body Wt. % Δ from Baseline, Median” value [1]?
Its value is 14.91%.

What about the “Concentration in Mouse Whole Blood, Mean” value [2, 4] of the same molecule?
Its value is 529 ng/mL.

What about the “Concentration in Mouse Whole Blood, individual animals 1-3” value (shortened to “Concentration … individual animals 1-3”) [2, 4] of the same molecule?
Its value is 519 ng/mL and 530 ng/mL and 537 ng/mL.

What about the “Concentration in Mouse Whole Blood, Mean” value [2, 5] of the same molecule?
Its value is 431 ng/mL.

And the “Concentration … individual animals 1-3” value [2, 5]?
The value was 668 ng/mL and 392 ng/mL and 233 ng/mL.

What about the “Concentration in Mouse Whole Blood, Mean” value [2, 6] of the same molecule?
The value was 486 ng/mL.

And the “Concentration … individual animals 1-3” value [2, 6]?
The value was 468 ng/mL and 646 ng/mL and 344 ng/mL.

And the “Concentration in Mouse Whole Blood, Mean” value [2, 7]?
The value was 36.6 ng/mL.

What about the “Concentration … individual animals 1-3” value [2, 7] of the same molecule?
Its value is 35.8 ng/mL and 48.0 ng/mL and 26.0 ng/mL.

And the “Concentration in Mouse Whole Blood, Mean” value [2, 8]?
Its value is 569 ng/mL.

And the “Concentration … individual animals 1-3” value [2, 8]?
Its value is 682 ng/mL and 670 ng/mL and 354 ng/mL.

What about the “Concentration in Mouse Whole Blood, Mean” value [2, 9] of the same molecule?
The value was 814 ng/mL.

And the “Concentration … individual animals 1-3” value [2, 9]?
The value was 746 ng/mL and 841 ng/mL and 854 ng/mL.

And the “Concentration in Mouse Whole Blood, Mean” value [2, 10]?
The value was 552 ng/mL.

What about the “Concentration … individual animals 1-3” value [2, 10] of the same molecule?
Its value is 537 ng/mL and 803 ng/mL and 315 ng/mL.

And the “Concentration in Mouse Whole Blood, Mean” value [2, 11]?
Its value is 47.8 ng/mL.

What about the “Concentration … individual animals 1-3” value [2, 11] of the same molecule?
The value was 26.8 ng/mL and 76.5 ng/mL and 40.1 ng/mL.

And the “Concentration in Mouse Whole Blood, Mean” value [2, 12]?
Its value is 946 ng/mL.

What about the “Concentration … individual animals 1-3” value [2, 12] of the same molecule?
The value was 968 ng/mL and 885 ng/mL and 986 ng/mL.

What about the “Concentration in Mouse Whole Blood, Mean” value [2, 13] of the same molecule?
The value was 583 ng/mL.

What about the “Concentration … individual animals 1-3” value [2, 13] of the same molecule?
The value was 760 ng/mL and 707 ng/mL and 282 ng/mL.

And the “Concentration in Mouse Whole Blood, Mean” value [2, 14]?
The value was 630 ng/mL.

What about the “Concentration … individual animals 1-3” value [2, 14] of the same molecule?
The value was 560 ng/mL and 860 ng/mL and 469 ng/mL.

And the “Concentration in Mouse Whole Blood, Mean” value [2, 15]?
The value was 62.5 ng/mL.

What about the “Concentration … individual animals 1-3” value [2, 15] of the same molecule?
Its value is 45.7 ng/mL and 92.2 ng/mL and 49.7 ng/mL.

What about the “Concentrations in whole blood over time (in words)” value ([2]; 2 mg/kg or 10 mg/kg IP QD for three days) of the same molecule?
The value was “sufficient concentrations in whole blood over time”.

And the “Concentration in Mouse Whole Blood, Mean” value [2, 16]?
Its value is 778 ng/mL.

And the “Concentration in Mouse Whole Blood, individual animals 4-6” value (shortened to “Concentration … individual animals 4-6”) [2, 16]?
Its value is 744 ng/mL and 736 ng/mL and 853 ng/mL.

What about the “Concentration in Mouse Whole Blood, Mean” value [2, 17] of the same molecule?
The value was 2340 ng/mL.

What about the “Concentration … individual animals 4-6” value [2, 17] of the same molecule?
The value was 2390 ng/mL and 2040 ng/mL and 2590 ng/mL.

And the “Concentration in Mouse Whole Blood, Mean” value [2, 18]?
Its value is 1726 ng/mL.

What about the “Concentration … individual animals 4-6” value [2, 18] of the same molecule?
Its value is 1970 ng/mL and 2300 ng/mL and 908 ng/mL.

And the “Concentration in Mouse Whole Blood, Mean” value [2, 19]?
The value was 273 ng/mL.

What about the “Concentration … individual animals 4-6” value [2, 19] of the same molecule?
Its value is 357 ng/mL and 320 ng/mL and 141 ng/mL.

And the “Concentration … individual animals 4-6” value ([2]; 10 mg/kg IP QD x 3 days, Day 2, 1.00 hrs)?
The value was “AQL (Original value above quantitation limit (1000 ng/mL)) and 3130 ng/mL and 739 ng/mL”.

What about the “Concentration in Mouse Whole Blood, Mean” value ([2]; 10 mg/kg IP QD x 3 days, Day 2, 1.00 hrs, one animal AQL) of the same molecule?
Its value is 1935 ng/mL.

What about the “Concentration in Mouse Whole Blood, Mean” value [2, 20] of the same molecule?
The value was 2820 ng/mL.

What about the “Concentration … individual animals 4-6” value [2, 20] of the same molecule?
The value was 3060 ng/mL and 2660 ng/mL and 2740 ng/mL.

What about the “Concentration … individual animals 4-6” value ([2]; 10 mg/kg IP QD x 3 days, Day 2, 6.00 hrs) of the same molecule?
The value was “AQL (Original value above quantitation limit (1000 ng/mL)) (2×) and 811 ng/mL”.

What about the “Concentration in Mouse Whole Blood, Mean” value ([2]; 10 mg/kg IP QD x 3 days, Day 2, 6.00 hrs, two animals AQL) of the same molecule?
The value was 811 ng/mL.

What about the “Concentration in Mouse Whole Blood, Mean” value [2, 21] of the same molecule?
Its value is 335 ng/mL.

And the “Concentration … individual animals 4-6” value [2, 21]?
Its value is 335 ng/mL and 472 ng/mL and 199 ng/mL.

What about the “Concentration … individual animals 4-6” value ([2]; 10 mg/kg IP QD x 3 days, Day 3, 1.00 hrs) of the same molecule?
The value was 3490 ng/mL and 3220 ng/mL.

What about the “Concentration … individual animals 4-6” value ([2]; 10 mg/kg IP QD x 3 days, Day 3, 2.00 hrs) of the same molecule?
The value was 2530 ng/mL and 2680 ng/mL and 482 ng/mL.

What about the “Concentration … individual animals 4-6” value ([2]; 10 mg/kg IP QD x 3 days, Day 3, 6.00 hrs) of the same molecule?
Its value is 966 ng/mL and 2410 ng/mL and 773 ng/mL.

What about the “Concentration … individual animals 4-6” value ([2]; 10 mg/kg IP QD x 3 days, Day 3, 24.0 hrs) of the same molecule?
The value was 548 ng/mL and 276 ng/mL.

And the “Percent Survival” value [3]?
The value was 100%.

And the “Relative cell count (%) Mean” value (U2OS; 1.00E+00 microM)?
Its value is 50.8%.

And the “Relative cell count (%) Mean” value (U2OS; 1.00E−01 microM)?
Its value is 48.5%.

And the “Relative cell count (%) Mean” value (U2OS; 1.00E−02 microM)?
The value was 51.4%.

And the “Relative cell count (%) Mean” value (U2OS; 1.00E−03 microM)?
The value was 69.9%.

And the “Relative cell count (%) Mean” value (U2OS; 1.01E−04 microM)?
The value was 86.1%.

And the “Relative cell count (%) Mean” value (U2OS; 3.16E−01 microM)?
The value was 43.2%.

What about the “Relative cell count (%) Mean” value (U2OS; 3.17E−02 microM) of the same molecule?
The value was 47.8%.

And the “Relative cell count (%) Mean” value (U2OS; 3.17E−03 microM)?
The value was 62.6%.

And the “Relative cell count (%) Mean” value (U2OS; 3.18E−04 microM)?
Its value is 75.4%.

And the “Relative cell count (%) Mean” value (U2OS; 3.18E−05 microM)?
Its value is 95.3%.

And the EC50 (U2OS; [22])?
The EC50 was 0.395 nM.

What about the GI50 (U2OS; Homo sapiens, 72 h, 3-day incubation, read-out: Cell Count GI50) of the same molecule?
Its GI50 is 2.76 nM.

What about the IC50 (U2OS; [22]) of the same molecule?
The IC50 was 12.1 nM.

And the “Cell Count Activity Area” value (U2OS)?
The value was 4.05.

Which results are given for CO[C@H]1C[C@@H]2CC[C@@H](C)[C@@](O)(O2)C(=O)C(=O)N2CCCC[C@H]2C(=O)O[C@H]([C@H](C)C[C@@H]2CC[C@@H](O)[C@H](OC)C2)CC(=O)[C@H](C)/C=C(\C)[C@@H](O)[C@@H](OC)C(=O)[C@H](C)C[C@H](C)/C=C/C=C/C=C/1C [Rapamycin, reference compound]?
EC50 (U2OS; [22]): 0.65 nM; IC50 (U2OS; [22]): > 1000 nM; Cell Count Activity Area (U2OS): 3.04
